Values quoted from earlier work, collected in patent US11160791B2, “Dexmedetomidine injection premix formulation in ready to use (RTU) bags” (Medefil, Inc., priority 2018, dated 2021).

drug loss with a buffer (plastic containers, buffer system in the formulation, same prior patents): ~10% | dexmedetomidine loss when sodium chloride is used (plastic containers, even with buffers present, U.S. Pat. No. 9,649,296): at least 10% | loss of the dexmedetomidine from the liquid composition (plastic materials, U.S. Pat. Nos. 8,242,158, 8,648,106, 8,436,033, 8,338,470): up to 20%
SMILES: Cc1cccc([C@H](C)c2cnc[nH]2)c1C [dexmedetomidine]
